Counter-ions that a name gives are not always drawn.
Legend:
[1] = system: Klebsiella pneumoniae expressing KPC-1 (CL6569); assay: Antibiotic activity: growth inhibitory concentration (OD600), Klebsiella pneumoniae CL6569; assay type: cell-based; conditions: lowest concentration inhibiting 95% of bacterial growth; in the presence of β lactamase inhibitor Relebactam 4 μg/mL; 35±2° C. for 22 hours; tested range 100 μM to 0.098 μM
Experimental: (§1) Antibiotic Activity: Determination of Growth Inhibitory Concentration
(§2) The concentrations of compounds required to inhibit the growth of various strains of bacteria were determined in an assay that assessed bacterial growth by measuring optical density at 600 nm (OD600). The bacterial strains tested included the clinical strains Escherichia coli expressing NDM-1 (CLB30016), Klebsiella pneumoniae expressing KPC-1 (CL6569), Acinetobacter baumannii expressing TEM-1, AmpC, and Oxa-24/40 (CL6188) and Pseudomonas aeruginosa expressing AmpC (CL5701). All compounds were tested in the presence of a β lactamase inhibitor (BLi, Relebactam) in 384-well microplates. The clinical strains were stored as frozen single use stocks, thawed and diluted into 1.1× cation-adjusted Mueller-Hinton II broth to achieve approximately 2×10^5 CFU/mL. Test compounds were dissolved in DMSO and diluted 1:50 in the assay, resulting in a final concentration range of 100 μM to 0.098 μM. On the day of the assay, 1 μL of test compound was added to the plate followed by 4 μL of 50 μg/mL BLi in MOPS buffer and 45 μL of diluted bacteria. Plates were centrifuged at 1000 rpm for 30 seconds, shaken at approximately 800 rpm for 1 minute, and incubated at 35±2° C. for 22 hours. The concentration of BLi used in the assay was 4 μg/mL. At the end of the incubation, absorbance at 600 nm was determined using a spectrophotometer. Inhibition was quantitated by identifying the lowest concentration of test compound that was required to inhibit 95% of the growth of the bacteria. The results for Examples 1-126 are reported in Table I, expressed as the concentration of compound that inhibited 95% of bacterial growth (Minimum Inhibitory Threshold Concentration; MITC95).

[2] = system: Pseudomonas aeruginosa expressing AmpC (CL5701); assay: Antibiotic activity: growth inhibitory concentration (OD600), Pseudomonas aeruginosa CL5701; assay type: cell-based; conditions: lowest concentration inhibiting 95% of bacterial growth; in the presence of β lactamase inhibitor Relebactam 4 μg/mL; 35±2° C. for 22 hours; tested range 100 μM to 0.098 μM
Experimental: as §1, §2

Row | Compound | KP_CL6569 MITC95 [1] [µM] | PA_CL5701 MITC95 [2] [µM]
1 | CC1(C)[C@H](NC(=O)/C(=N\OCCOc2ccc(-c3nc4c([nH]3)CNCC4)cc2)c2csc(N)n2)C(=O)N1OS(=O)(=O)O [Example 86, (S)-3-(2-(2-aminothiazol-4-yl)-2-((2-(4-(4,5,6,7-tetrahydro-3H-imidazo[4,5-c]pyridin-2-yl)phenoxy)ethoxy)imino)acetamido)-2,2-dimethyl-4-oxoazetidin-1-yl hydrogen sulfate] | 1.281 | 25
2 | CC1(C)[C@H](NC(=O)/C(=N\O[C@@H](COc2ccc(-c3cc(CN)n(CCCN)n3)cc2)C(=O)O)c2csc(N)n2)C(=O)N1OS(=O)(=O)O [Example 126, (S)-3-(4-(5-(Aminomethyl)-1-(3-aminopropyl)-1H-pyrazol-3-yl)phenoxy)-2-((((Z)-1-(2-aminothiazol-4-yl)-2-(((S)-2,2-dimethyl-4-oxo-1-(sulfooxy)azetidin-3-yl)amino)-2-oxoethylidene)amino)oxy)propanoic acid] | 0.39 | 3.125
3 | C[n+]1cc(-c2ccc(OC[C@H](O/N=C(\C(=O)N[C@@H]3C(=O)N(OS(=O)(=O)[O-])C3(C)C)c3csc(N)n3)C(=O)O)cc2)cn1CCCN [Example 1, (S)-3-((Z)-2-(2-aminothiazol-4-yl)-2-(((S)-2-(4-(1-(3-ammoniopropyl)-2-methyl-1H-pyrazol-2-ium-4-yl)phenoxy)-1-carboxyethoxy)imino)acetamido)-2,2-dimethyl-4-oxoazetidin-1-yl sulfate 2,2,2-trifluoroacetate] | 0.3906 | 3.125
4 | C[n+]1cc(-c2ccc(OC[C@H](O/N=C(\C(=O)N[C@@H]3C(=O)N(OS(=O)(=O)[O-])C3(C)C)c3nc(N)sc3Cl)C(=O)O)cc2)cn1CCCN [Example 11, (S)-3-((Z)-2-(2-Amino-5-chlorothiazol-4-yl)-2-(((S)-2-(4-(1-(3-aminopropyl)-2-methyl-1H-pyrazol-2-ium-4-yl)phenoxy)-1-carboxyethoxy)imino)acetamido)-2,2-dimethyl-4-oxoazetidin-1-yl sulfate] | 0.7813 | 3.125
5 | C[n+]1cc(-c2ccc(OC[C@H](O/N=C(\C(=O)N[C@@H]3C(=O)N(OS(=O)(=O)O)C3(C)C)c3csc(N)n3)C(=O)O)cc2F)cn1CC(N)CN (single isomer, unassigned) [Example 45] | 0.3906 | 6.25
6 | COP(=O)(O)[C@H](COc1ccc(-c2cn(CCCN)[n+](C)c2)cc1)O/N=C(\C(=O)N[C@@H]1C(=O)N(OS(=O)(=O)O)C1(C)C)c1csc(N)n1.O=C(O)C(F)(F)F [Example 41, (3S)-3-((Z)-2-(((1R)-2-(4-(1-(3-aminopropyl)-2-methyl-1H-pyrazol-2-ium-4-yl)phenoxy)-1-(hydroxy(methoxy)phosphoryl)ethoxy)imino)-2-(2-aminothiazol-4-yl)acetamido)-2,2-dimethyl-4-oxoazetidin-1-yl sulfate compound with 2,2,2-trifluoroacetic acid (1:1)] | 1.563 | 25
7 | Cn1c(-c2ccc(OC[C@H](O/N=C(\C(=O)N[C@@H]3C(=O)N(OS(=O)(=O)O)C3(C)C)c3csc(N)n3)C(=O)O)cc2)cn(CC(O)CN)c1=N (single isomer, unassigned) [Example 56] | 0.3906 | 3.125
8 | C[C@H]1[C@H](NC(=O)/C(=N\O[C@@H](COc2ccc(-c3cn(CCCN)[n+](C)c3)cc2)c2nn[nH]n2)c2csc(N)n2)C(=O)N1S(=O)(=O)O.O=C([O-])C(F)(F)F [Example 30, 1-(3-aminopropyl)-4-(4-((R)-2-((((Z)-1-(2-aminothiazol-4-yl)-2-(((2S,3S)-2-methyl-4-oxo-1-sulfoazetidin-3-yl)amino)-2-oxoethylidene)amino)oxy)-2-(2H-tetrazol-5-yl)ethoxy)phenyl)-2-methyl-1H-pyrazol-2-ium 2,2,2-trifluoroacetate] | 3.125 | 6.25

From patent US11230543B2, “Biaryl monobactam compounds and methods of use thereof for the treatment of bacterial infections” (priority 2015, dated 2022)
